Key:
Assay type in all cases: cell-based
[1] = tested on: Phospho-Rb (Ser807/811); assay: Phospho-Retinoblastoma (pRB) Cellular Assay; conditions: Homo sapiens, OVCAR-3, NIH OVCAR3 cells, 24 hours; for IC50: concentration giving 50% response; for Emax: maximum response, reference compound at 10 μM = 100%, read-out: pRB Ymax
How it was run: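 Phospho-Rb (Ser807/811) kit read-out on EnVision after lysis (≥4 h, room temperature, dark) of OVCAR3 cells exposed to compound dilutions for 24 h. IC50 and maximum response Ymax are relative to a 10 μM reference compound defining 100%.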

[2] = target: GSPT1 (Homo sapiens, UniProt P15170+Q96SW2); assay: GSPT1 Cellular Degradation Assay (DF15-GSPT1-ePL); design: expressed in transfected cells; conditions: DF15-GSPT1-ePL cells, 20 hours
How it was run: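 DC50 and Dmax were derived from chemiluminescence, with 75% response set by the reference compound at […]. Readout was ePL enzyme-fragment complementation in a DF15 line expressing chimeric GSPT1. Cells were exposed to compound for 20 h at 37 °C in RPMI 1640 with 10% FBS, cooled 30 min, then lysed with substrate for 60 min.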

[3] = target: Cyclin E1 (Homo sapiens, UniProt P24864+Q96SW2); assay: Cyclin E1 Cellular Degradation Assay (MSD); design: endogenous in cells; host or cells: OVCAR3; conditions: for DC50 / Dmax: Cyclin E1 cellular degradation; for Dmax: maximum degradation; for Ratio of GSPT1 DC50/Cyclin E1 DC50: selectivity for degradation of Cyclin E1 over GSPT1
How it was run: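 Cyclin E1 remaining after 24 h compound exposure of OVCAR3 cells was quantified in lysates by electrochemiluminescent MSD sandwich assay. DC50 (50% response concentration) and Dmax (maximum response) were calculated, with 110% response set by a reference compound at […].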

Sequence of GSPT1 (P15170 whole entry, the tested form may be a part): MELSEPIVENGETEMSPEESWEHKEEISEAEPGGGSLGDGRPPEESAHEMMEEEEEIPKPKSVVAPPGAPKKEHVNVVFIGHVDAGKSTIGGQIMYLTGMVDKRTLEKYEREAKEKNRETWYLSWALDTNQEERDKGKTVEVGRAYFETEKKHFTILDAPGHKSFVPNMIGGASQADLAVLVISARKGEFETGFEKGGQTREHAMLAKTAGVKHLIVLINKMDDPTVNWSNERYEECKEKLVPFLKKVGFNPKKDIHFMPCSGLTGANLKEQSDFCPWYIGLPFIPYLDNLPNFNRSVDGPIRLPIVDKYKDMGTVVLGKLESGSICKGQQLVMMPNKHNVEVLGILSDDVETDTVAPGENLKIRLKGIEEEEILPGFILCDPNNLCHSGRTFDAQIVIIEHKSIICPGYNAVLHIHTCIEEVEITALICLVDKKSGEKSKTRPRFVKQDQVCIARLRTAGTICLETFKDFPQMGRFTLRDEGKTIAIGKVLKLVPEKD
Sequence of GSPT1 (Q96SW2 whole entry, the tested form may be a part): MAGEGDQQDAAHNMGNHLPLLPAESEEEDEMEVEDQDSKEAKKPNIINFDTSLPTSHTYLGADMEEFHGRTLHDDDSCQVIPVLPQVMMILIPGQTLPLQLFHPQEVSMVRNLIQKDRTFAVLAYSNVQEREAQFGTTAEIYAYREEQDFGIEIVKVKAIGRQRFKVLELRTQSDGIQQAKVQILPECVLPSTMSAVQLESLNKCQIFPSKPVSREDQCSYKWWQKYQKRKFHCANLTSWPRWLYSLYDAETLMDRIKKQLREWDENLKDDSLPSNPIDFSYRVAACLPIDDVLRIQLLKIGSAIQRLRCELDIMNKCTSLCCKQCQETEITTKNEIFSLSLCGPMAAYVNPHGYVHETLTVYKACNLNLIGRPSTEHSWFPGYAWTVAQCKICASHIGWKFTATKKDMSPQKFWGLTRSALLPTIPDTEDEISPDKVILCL
Sequence of GSPT1 (Q16531 whole entry partner, the tested form may be a part): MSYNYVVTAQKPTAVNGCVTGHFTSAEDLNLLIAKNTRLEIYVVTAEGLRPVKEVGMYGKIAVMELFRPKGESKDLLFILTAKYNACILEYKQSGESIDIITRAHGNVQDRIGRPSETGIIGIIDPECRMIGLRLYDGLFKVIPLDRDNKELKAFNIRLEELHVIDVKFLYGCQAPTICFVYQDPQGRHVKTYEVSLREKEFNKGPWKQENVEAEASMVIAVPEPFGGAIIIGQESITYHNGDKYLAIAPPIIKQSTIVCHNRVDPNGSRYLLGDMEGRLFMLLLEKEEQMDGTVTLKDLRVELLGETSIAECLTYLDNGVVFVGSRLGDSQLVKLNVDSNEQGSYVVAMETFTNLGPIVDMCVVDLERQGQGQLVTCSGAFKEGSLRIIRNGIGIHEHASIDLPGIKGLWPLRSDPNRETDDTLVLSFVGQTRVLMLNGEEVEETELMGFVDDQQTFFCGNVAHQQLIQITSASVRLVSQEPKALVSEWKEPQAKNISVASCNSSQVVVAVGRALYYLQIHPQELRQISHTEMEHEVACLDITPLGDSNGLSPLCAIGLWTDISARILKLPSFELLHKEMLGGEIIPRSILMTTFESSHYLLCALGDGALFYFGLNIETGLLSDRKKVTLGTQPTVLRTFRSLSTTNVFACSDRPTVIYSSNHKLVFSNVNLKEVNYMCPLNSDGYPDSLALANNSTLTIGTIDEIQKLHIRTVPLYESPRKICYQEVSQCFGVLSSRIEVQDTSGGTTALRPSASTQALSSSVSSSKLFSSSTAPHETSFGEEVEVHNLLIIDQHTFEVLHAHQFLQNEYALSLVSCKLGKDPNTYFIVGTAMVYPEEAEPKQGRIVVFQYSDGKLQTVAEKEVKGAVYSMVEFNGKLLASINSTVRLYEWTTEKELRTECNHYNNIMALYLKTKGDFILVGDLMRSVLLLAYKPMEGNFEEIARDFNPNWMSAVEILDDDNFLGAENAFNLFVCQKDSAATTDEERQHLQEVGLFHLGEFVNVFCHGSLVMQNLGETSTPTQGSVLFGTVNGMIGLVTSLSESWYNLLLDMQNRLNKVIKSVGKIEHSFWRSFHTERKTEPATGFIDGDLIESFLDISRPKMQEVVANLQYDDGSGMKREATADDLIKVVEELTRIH
Sequence of Cyclin E1 (P24864 whole entry): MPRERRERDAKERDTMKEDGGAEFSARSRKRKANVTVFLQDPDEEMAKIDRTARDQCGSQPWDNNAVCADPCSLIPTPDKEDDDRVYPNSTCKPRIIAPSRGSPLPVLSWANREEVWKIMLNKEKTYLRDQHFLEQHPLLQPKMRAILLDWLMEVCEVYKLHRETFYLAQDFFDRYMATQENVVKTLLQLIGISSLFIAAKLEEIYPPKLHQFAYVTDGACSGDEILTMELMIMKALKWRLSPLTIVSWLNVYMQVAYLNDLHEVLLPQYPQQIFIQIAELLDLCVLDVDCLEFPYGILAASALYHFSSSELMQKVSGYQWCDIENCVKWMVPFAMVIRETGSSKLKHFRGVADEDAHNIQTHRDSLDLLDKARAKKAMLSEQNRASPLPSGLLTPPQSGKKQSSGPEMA
Sequence of Cyclin E1 (Q96SW2 whole entry): as the sequence (Q96SW2 whole entry, the tested form may be a part) above
Sequence of Cyclin E1 (Q16531 whole entry partner): as the sequence (Q16531 whole entry partner, the tested form may be a part) above

Question: With `O=C1CC[C@H](N2Cc3ccc(COC(=O)Nc4ccc(Oc5ccc(F)c(F)c5)cc4)c(OCCCc4ccccc4)c3C2=O)C(=O)N1` [Example 173, {2-[(3S)-2,6-dioxopiperidin-3-yl]-3-oxo-4-(3-phenylpropoxy)-2,3-dihydro-1H-isoindol-5-yl}methyl N-[4-(3,4-difluorophenoxy)phenyl]carbamate] as the compound, how does the IC50 [1] read?
Answer: 129 nM

Question: What about the Emax [1] of the same compound?
Answer: 127%

Question: What about the DC50 [2] of the same compound?
Answer: > 14000 nM

Question: What about the Dmax [2] of the same compound?
Answer: 14%

Question: What about the DC50 [3] of the same compound?
Answer: 156 nM

Question: What about the Dmax [3] of the same compound?
Answer: 105%

Question: What about the “Ratio of GSPT1 DC50/Cyclin E1 DC50” value [3] of the same compound?
Answer: >89

Question: How did the IC50 [1] turn out when `COC(=O)COc1c(COC(=O)Nc2ccc(Oc3ccc(F)c(F)c3)cc2)ccc2c1C(=O)N(C1CCC(=O)NC1=O)C2` (centres unmarked) [Example 174, Methyl 2-({5-[({[4-(3,4-difluorophenoxy)phenyl]carbamoyl}oxy)methyl]-2-(2,6-dioxopiperidin-3-yl)-3-oxo-2,3-dihydro-1H-isoindol-4-yl}oxy)acetate] was run?
Answer: 473 nM

Question: And the Emax [1]?
Answer: 99%

Question: What about the DC50 [2] of the same compound?
Answer: > 14000 nM

Question: And the Dmax [2]?
Answer: 16%

Question: What about the DC50 [3] of the same compound?
Answer: 204 nM

Question: What about the Dmax [3] of the same compound?
Answer: 100%

Question: What about the “Ratio of GSPT1 DC50/Cyclin E1 DC50” value [3] of the same compound?
Answer: >69

Question: `CN(C)C(=O)COc1c(COC(=O)Nc2ccc(Oc3ccc(F)c(F)c3)cc2)ccc2c1C(=O)N(C1CCC(=O)NC1=O)C2` (centres unmarked) [Example 175, {4-[(dimethylcarbamoyl)methoxy]-2-(2,6-dioxopiperidin-3-yl)-3-oxo-2,3-dihydro-1H-isoindol-5-yl}methyl N-[4-(3,4-difluorophenoxy)phenyl]carbamate] was tested. Which IC50 [1] did it give?
Answer: 30 nM

Question: What about the Emax [1] of the same compound?
Answer: 128%

Question: And the DC50 [2]?
Answer: > 14000 nM

Question: What about the Dmax [2] of the same compound?
Answer: 11%

Question: What about the DC50 [3] of the same compound?
Answer: 45 nM

Question: What about the Dmax [3] of the same compound?
Answer: 110%

Question: And the “Ratio of GSPT1 DC50/Cyclin E1 DC50” value [3]?
Answer: >308

Question: How did the IC50 [1] turn out when `NC(=O)COc1c(COC(=O)Nc2ccc(Oc3ccc(F)c(F)c3)cc2)ccc2c1C(=O)N(C1CCC(=O)NC1=O)C2` (centres unmarked) [Example 176, [4-(carbamoylmethoxy)-2-(2,6-dioxopiperidin-3-yl)-3-oxo-2,3-dihydro-1H-isoindol-5-yl]methyl N-[4-(3,4-difluorophenoxy)phenyl]carbamate] was run?
Answer: 44 nM

Question: What about the Emax [1] of the same compound?
Answer: 112%

Question: And the DC50 [2]?
Answer: > 14000 nM

Question: And the Dmax [2]?
Answer: 20%

Question: And the DC50 [3]?
Answer: 179 nM

Question: What about the Dmax [3] of the same compound?
Answer: 101%

Question: What about the “Ratio of GSPT1 DC50/Cyclin E1 DC50” value [3] of the same compound?
Answer: >78

Question: How did the IC50 [1] turn out when `CCN(C)C(=O)COc1c(COC(=O)Nc2ccc(Oc3ccc(F)c(F)c3)cc2)ccc2c1C(=O)N(C1CCC(=O)NC1=O)C2` (centres unmarked) [Example 177, [2-(2,6-dioxopiperidin-3-yl)-4-{[ethyl(methyl)carbamoyl]methoxy}-3-oxo-2,3-dihydro-1H-isoindol-5-yl]methyl N-[4-(3,4-difluorophenoxy)phenyl]carbamate] was run?
Answer: 161 nM

Question: What about the Emax [1] of the same compound?
Answer: 126%

Question: What about the DC50 [2] of the same compound?
Answer: > 14000 nM

Question: What about the Dmax [2] of the same compound?
Answer: 0%

Question: What about the DC50 [3] of the same compound?
Answer: 299 nM

Question: And the Dmax [3]?
Answer: 108%

Question: What about the “Ratio of GSPT1 DC50/Cyclin E1 DC50” value [3] of the same compound?
Answer: >47

Question: How did the IC50 [1] turn out when `O=C1CCC(N2Cc3ccc(COC(=O)Nc4ccc(Oc5ccc(F)c(F)c5)cc4)c(OCC(=O)N4CCOCC4)c3C2=O)C(=O)N1` (centres unmarked) [Example 178, [2-(2,6-dioxopiperidin-3-yl)-4-[2-(morpholin-4-yl)-2-oxoethoxy]-3-oxo-2,3-dihydro-1H-isoindol-5-yl]methyl N-[4-(3,4-difluorophenoxy)phenyl]carbamate] was run?
Answer: 131 nM

Question: And the Emax [1]?
Answer: 126%

Question: What about the DC50 [2] of the same compound?
Answer: > 14000 nM

Question: What about the Dmax [2] of the same compound?
Answer: 16%

Question: What about the DC50 [3] of the same compound?
Answer: 110 nM

Question: What about the Dmax [3] of the same compound?
Answer: 105%

Question: What about the “Ratio of GSPT1 DC50/Cyclin E1 DC50” value [3] of the same compound?
Answer: >127

Question: With `CC(=O)N1CCC(Oc2c(COC(=O)Nc3ccc(Oc4ccc(F)c(F)c4)cc3)ccc3c2C(=O)N(C2CCC(=O)NC2=O)C3)CC1` (centres unmarked) [Example 179, {4-[(1-acetylpiperidin-4-yl)oxy]-2-(2,6-dioxopiperidin-3-yl)-3-oxo-2,3-dihydro-1H-isoindol-5-yl}methyl N-[4-(3,4-difluorophenoxy)phenyl]carbamate] as the compound, how does the IC50 [1] read?
Answer: 42 nM

Question: What about the Emax [1] of the same compound?
Answer: 140%

Question: And the DC50 [2]?
Answer: > 14000 nM

Question: And the Dmax [2]?
Answer: 10%

Question: What about the DC50 [3] of the same compound?
Answer: 224 nM

Question: What about the Dmax [3] of the same compound?
Answer: 104%

Question: What about the “Ratio of GSPT1 DC50/Cyclin E1 DC50” value [3] of the same compound?
Answer: >62

Question: What does the source list for `[2H]C1([2H])C(=O)NC(=O)[C@@]([2H])(N2Cc3ccc(COC(=O)Nc4ccc(Oc5ccc(F)c(F)c5)cc4)c(OC)c3C2=O)C1([2H])[2H]` [Example 180, {2-[(3S)-2,6-dioxo(3,4,4,5,5-^2H5s)piperidin-3-yl]-4-methoxy-3-oxo-2,3-dihydro-1H-isoindol-5-yl}methyl N-[4-(3,4-difluorophenoxy)phenyl]carbamate]?
Answer: IC50 [1]: 54 nM; Emax [1]: 108%; DC50 [2]: > 14000 nM; Dmax [2]: 48%; DC50 [3]: 60 nM; Dmax [3]: 111%; Ratio of GSPT1 DC50/Cyclin E1 DC50 [3]: >233

— patent US20250084056A1, “SUBSTITUTED OXOISOINDOLINYL PIPERIDINE-2,6-DIONE COMPOUNDS” (BRISTOL-MYERS SQUIBB COMPANY, priority 2023, published 2025)
